Data set [1] has as its system human breast cancer cell line (MCF-7). Description: Anticancer activity against human breast cancer cell line MCF-7. It is filed as cell-based.
For data set [2], the system named is adeno carcinomic human alveolar basal epithelial cell line (A-549). Description: Anticancer activity against human alveolar basal epithelial cell line A-549. It is filed as cell-based.

What is called IC50 is the concentration needed to halve the response being measured. Read a high IC50 as lower potency. Usually melting point stands for the temperature, or range, at which the solid turns liquid.

Like-named read-outs stand apart in the source and are kept apart here.

On to `COc1ccc(-c2nc(=O)[nH]c3[nH]c(=O)[nH]c(=O)c23)cc1O` [Compound 4c, 5-(3-Hydroxy-4-methoxyphenyl)pyrimido[4,5-d]pyrimidine-2,4,7(1H,3H,8H)-trione], for which the melting point lay within 272 to 274 °C. In data set [1] (MCF7), this compound had an IC50 of 295 nM. In data set [2] (A549), the IC50 stood at 461 nM.
`O=c1nc(-c2cccc(OCc3ccccc3)c2)c2c(=O)[nH]c(=O)[nH]c2[nH]1` [Compound 4a, 5-(3-(Benzyloxy)phenyl)pyrimido[4,5-d]pyrimidine-2,4,7(1H,3H,8H)-trione] gave a melting point of 186 to 188 °C. In data set [1] (MCF7), this compound yielded an IC50 of 663 nM. This compound also showed an IC50 in data set [2] (A549) of 518 nM.
“5-(3-Hydroxy-4-methoxyphenyl)-1,3-dimethylpyrimido[4,5-d]pyrimidine-2,4,7(1H,3H,8H)-trione [Compound 4d]”: the IC50 in data set [1] is 10 nM; in data set [2] it was 186 nM.
For the compound `O=c1nc(-c2ccc(OCc3ccccc3)cc2)c2c(=O)[nH]c(=O)[nH]c2[nH]1` [Compound 4b, 5-(4-(Benzyloxy)phenyl)pyrimido[4,5-d]pyrimidine-2,4,7(1H,3H,8H)-trione], the melting point is 142 to 144 °C. The same compound returned an IC50 in data set [1] (MCF7) of 38 nM. Besides, the IC50 in data set [2] (A549) is 82 nM.
